Source: patent publication US20230364198A1, “C-Peptide as a Therapy for Patients with Diabetes” (University of Cincinnati, priority 2022, published 2023)
Where “and” joins values, the source holds several entries; their conditions need not be identical. Equal values may be shown once. Entries after “also recorded” stand apart in the source; their conditions may differ. Read-outs that look alike come from different tables or passages of the source. No end group written: not given here.

Legend:
[1] = humans; cited from earlier work
[2] = in vivo; cited from earlier work
[3] = dogs; cited from earlier work
[4] = tested on: adult mongrel dogs; test: Hyperinsulinemic euglycemic (Pd1) / hypoglycemic (Pd2) clamp with IV C-peptide or saline coinfusion in dogs; format: in vivo, dog; settings: for glucagon secretion during euglycemic/hyperinsulinemic conditions (words): Pd1, IV C-peptide with insulin vs IV saline with insulin
Method: Studies were carried out on 18-hour fasted adult mongrel dogs (21 ± 4 kg; mean ± SD; 5 male, 4 female), aged 12.1 ± 0.6 months and acquired from a US Department of Agriculture-approved vendor. The animals were housed in a facility with a 12-hour light/12-hour dark cycle (lights on at 06:00 hours) and fed once daily a standard chow and meat diet (34% protein, 14.5% fat, 46% carbohydrate, and 5.5% fiber based on dry weight) that was weight maintaining.
Two weeks prior to being studied, each dog underwent surgery under general anesthesia to insert sampling catheters in a femoral artery, the hepatic portal vein, and the left common hepatic vein and to place blood flow probes (Transonic Systems) around the hepatic portal vein and hepatic artery. Two experiments were conducted on each animal, with the first being approximately 15 days after surgery and the second approximately 15 days later. Two days before each experiment, blood was drawn to measure leukocyte and hematocrit counts for each animal. […] On the morning of each experiment, the sampling catheters and flow probes were removed from their subcutaneous pockets under local anesthesia (2% lidocaine, Hospira), and the animal was placed in a Pavlov harness. Intravenous catheters were then inserted into a cephalic and saphenous vein to allow peripheral infusions as necessary. The animal was then allowed to rest for 100 minutes, after which basal samples were collected from the artery and portal and hepatic veins between -20 and 0 minutes.
After the 0-minute sample was collected, experimental period 1 (Pd1) began with the infusion of insulin at 1 mU/kg/min into a leg vein (FIG. 1). At the same time, a leg vein infusion of either canine CPEP (10 pmol/kg/min; AnaSpec) or SAL was also started, and dextrose was infused as needed to maintain euglycemia throughout Pd1 (0-120 minutes). Studies were randomized such that 4 of the 9 dogs received the C-peptide on the first study and the other 5 received saline first. At minute 120, the dextrose infusion was reduced, and the plasma glucose level was allowed to fall to approximately 50 mg/dL, where it was clamped (Pd2; 120-240 minutes; FIG. 1). At the end of the first experiment, all infusions were halted with the exception of glucose, which was infused as needed to restore euglycemia. Once that infusion was no longer required, the catheters and flow probes were placed back into subcutaneous pockets under general anesthesia. After the second experiment, animals were euthanized with pentobarbital, the abdomen was opened, and the positions of the catheter tips were verified.
The processing of blood samples has been described previously. Plasma glucose was analyzed using the glucose oxidase method (Analox Instruments). Insulin, glucagon, and C-peptide were measured using commercially available radioimmunoassay (RIA) kits from MilliporeSigma, and cortisol was measured using an RIA protocol developed by the Vanderbilt University Medical Center Hormone Assay & Analytical Services Core using an in-house antibody (gift from W. Nicholson) and 125I-cortisol (MP Biomedicals). Catecholamines were measured using high-performance liquid chromatography, while NEFA (FUJIFILM Medical Systems) and lactate and glycerol concentrations were measured using fluorometric assays.
Hepatic blood flow was measured using ultrasonic flow probes (Transonic Systems). Net hepatic glucose balance (NHGB), hepatic sinusoidal insulin and glucagon levels, and non-hepatic glucose uptake were calculated as described previously, while plasma glucose levels were converted to whole blood values for the calculation of NHGB. Glucagon was measured every 30 minutes during Pd1 and Pd2, and those data are expressed as absolute values and as Δ AUC. […]

Sequence: EVEDLQVRDVELAGAPGEGGLQPLALEGALQ [C-peptide]
- clearance rate of C-peptide [1]: ~ 4.4 mL/kg/min
- C-peptide extraction by the liver as share of its clearance [2]: approximately 5%
- clearance rate of C-peptide [3]: ~ 11.6 mL/kg/min
- glucagon secretion during euglycemic/hyperinsulinemic conditions (words) [4]: preserved glucagon secretion; also recorded: prevented the expected decline in glucagon secretion; also recorded: preserves basal glucagon secretion
- glucagon secretion during euglycemic/hyperinsulinemic conditions (words) ([4]; listed as CPEP): glucagon secretion decreased less
- glucagon secretion during hypoglycemic/hyperinsulinemic conditions ([4]; Pd2, IV C-peptide with insulin vs IV saline with insulin): doubled glucagon secretion
- reduction in exogenous glucose required to sustain the plasma glucose at 50 mg/dL vs SAL ([4]; final 90 minutes of Pd2): 47%
- exogenous glucose infusion rate (GIR) AUC ([4]; final 90 minutes of Pd2, glucose clamped at 50 mg/dL, mean ± SEM): 37 ± 16 mg/kg × 90 minutes
- impact on net hepatic uptake of NEFA and glycerol ([4]; hyperinsulinemia of Pd1): no additional impact
- impact on lipolysis (NEFA and glycerol levels) ([4]; hypoglycemia, Pd2): no impact on lipolysis
- increase in glucagon secretion in the CPEP group compared with SAL ([4]; insulin-induced hypoglycemia (Pd2), IV C-peptide 10 pmol/kg/min with insulin 1 mU/kg/min): 2 fold
- epinephrine, norepinephrine and cortisol levels, SAL vs CPEP ([4]; insulin-induced hypoglycemia, Pd2): no significant difference between treatments
- increase in net hepatic glucose output (net HGP) vs SAL ([4]; insulin-induced hypoglycemia, final 90 minutes of Pd2): 75%
- increase in net hepatic glucose output (net HGP) vs SAL ([4]; insulin-induced hypoglycemia, final 90 minutes of Pd2, listed as CPEP): 75% and 73%
